How the values were obtained:
U251 = assay: Radiosensitization of radioresistant human glioma cell line U251 (surviving fraction after 2 Gy); assay type: cell-based; details: 0.4 nM, 48 h prior to irradiation (2 Gy)
Protocol: (§1) Radioresistant human glioma cell lines (SF763, U87, U251) were treated with compound 75, 48 h prior to irradiation (2 Gy). The dose administered was 0.4 nM for U251 and 2 nM for SF763 and U87.

[1] = tested on: LoVo human colon tumor cells; assay: LoVo human colon tumor xenograft in athymic nude mice, oral treatment with or without single 7 Gy irradiation on day 32; assay type: in vivo
Excerpt: Male athymic nude mice weighing approximately 22 to 25 g were inoculated subcutaneously in the inguinal region with 1×10^6 of LoVo human colon tumor cells (LoVo cells) on day 0. After three weeks to allow tumors to become established (diameter approximately 0.5 to 1 cm), treatment was started with solvent or compound 75 via the oral route, and either with or without a single shot irradiation on day 32. Parameters for activity were tumor growth rate and weight of the tumors at day 42.
Compound 75 was dissolved in water and acidified with 1 N HCl solution to pH 2.5 and administered orally (po) as 0.1 ml of compound solution per 10 g mouse body weight twice daily (bid). The dose administered was either 50 or 100 mg compound per kg bodyweight; treatment either preceded irradiation (days 22-32), followed irradiation (days 32-42) or continued throughout the duration of the experiment (days 22-42).
In each arm of the experiment 16 animals were included. The column ‘tumor (g)’ contains the median of the tumor weight of the animals sacrificed at day 42 of the experiment. FIGS. 1 and 2 represent the observed data in graphical form.

SF763 = assay: Radiosensitization of radioresistant human glioma cell line SF763 (surviving fraction after 2 Gy); assay type: cell-based; details: 2 nM, 48 h prior to irradiation (2 Gy)
Protocol: as §1

U87 = assay: Radiosensitization of radioresistant human glioma cell line U87 (surviving fraction after 2 Gy); assay type: cell-based; details: 2 nM, 48 h prior to irradiation (2 Gy)
Protocol: as §1

In the case of `Cn1cncc1[C@@](N)(c1ccc(Cl)cc1)c1ccc2c(c1)c(-c1cccc(Cl)c1)cc(=O)n2C` [Compound 75, (+)-(R)-6-[amino(4-chlorophenyl)(1-methyl-1H-imidazol-5-yl)methyl]-4-(3-chloro-phenyl)-1-methyl-2(1H)-quinolinone], the “decrease of surviving fraction after irradiation” value (from here on “decrease of surviving fraction”) (U251) is reported as 25%, the “tumor (g), median tumor weight at day 42” value ([1]; Group II, 50 mpk po bid, day 22-42, irradiation none) is reported as 0.255 g and the “tumor (g), median tumor weight at day 42” value ([1]; Group III, 50 mpk po bid, day 22-32, irradiation none) is reported as 0.273 g. For the same molecule, the “tumor (g), median tumor weight at day 42” value ([1]; Group IV, 50 mpk po bid, day 32-42, irradiation none) was 0.295 g, the “tumor (g), median tumor weight at day 42” value ([1]; Group IX, 50 mpk po bid, day 22-32, irradiation 7 Gy on day 32) was 0.156 g and the “tumor (g), median tumor weight at day 42” value ([1]; Group V, 100 mpk po bid, day 22-42, irradiation none) was 0.205 g. The “tumor (g), median tumor weight at day 42” value ([1]; Group VI, 100 mpk po bid, day 22-32, irradiation none) was 0.234 g, the “tumor (g), median tumor weight at day 42” value ([1]; Group VII, 100 mpk po bid, day 32-42, irradiation none) was 0.277 g and the “tumor (g), median tumor weight at day 42” value ([1]; Group VIII, 50 mpk po bid, day 22-42, irradiation 7 Gy on day 32) was 0.207 g. The “tumor (g), median tumor weight at day 42” value ([1]; Group X, 50 mpk po bid, day 32-42, irradiation 7 Gy on day 32) was 0.259 g, the “tumor (g), median tumor weight at day 42” value ([1]; Group XI, 100 mpk po bid, day 22-42, irradiation 7 Gy on day 32) was 0.164 g and the “tumor (g), median tumor weight at day 42” value ([1]; Group XII, 100 mpk po bid, day 22-32, irradiation 7 Gy on day 32) was 0.141 g. The “tumor (g), median tumor weight at day 42” value ([1]; Group XIII, 100 mpk po bid, day 32-42, irradiation 7 Gy on day 32) was 0.214 g, the “effect of treatment on the effect of irradiation (statistical analysis)” value ([1]; both 50 and 100 mpk) was “potentiates the effect of irradiation” and the “effect of pretreatment and irradiation on tumor weight compared to irradiation alone” value ([1]; pretreatment, both 50 and 100 mpk, plus irradiation) was “reduces tumor weight in a statistically significant manner”. For the same molecule, the “decrease of surviving fraction” value (SF763) was “about 55%” and the “decrease of surviving fraction” value (U87) was “about 55%”.

From US6545020B1, “Farnesyl Protein transferase inhibitors with in vivo radiosensitizing properties” (Janssen Pharmaceutica, N.V., priority 1998, dated 2003)
